In PMC9797307, “Measurement of Pharmacokinetics and Tissue Distribution of Four Compounds from Nauclea officinalis in Rat Plasma and Tissues through HPLC-MS/MS” (Journal of Analytical Methods in Chemistry, 2022):

Assay: Stability of QC samples in rat plasma and tissue homogenates under different storage conditions
Format: in vitro ADME
Conditions: in % (unit assumed)

In the case of `O=C(/C=C/c1ccc(O)c(O)c1)O[C@@H]1C[C@](O)(C(=O)O)C[C@@H](O)[C@H]1O` [Chlorogenic acid], the “Accuracy, Ambient temperature for 4 h” value (Brain, 2 ng/mL) is reported as 110.33 ± 7.55, the “Accuracy, Three freeze-thraw cycles” value (Brain, 2 ng/mL) is reported as 105.65 ± 10.92 and the “Accuracy, −80°C for 30 days” value (Brain, 2 ng/mL) is reported as 90.73 ± 10.25. The “Accuracy, Ambient temperature for 4 h” value (Brain, 4 ng/mL) was 89.12 ± 9.00, the “Accuracy, Three freeze-thraw cycles” value (Brain, 4 ng/mL) was 90.68 ± 10.51 and the “Accuracy, −80°C for 30 days” value (Brain, 4 ng/mL) was 105.32 ± 9.72. The “Accuracy, Ambient temperature for 4 h” value (Brain, 100 ng/mL) was 91.93 ± 9.93, the “Accuracy, Three freeze-thraw cycles” value (Brain, 100 ng/mL) was 108.13 ± 9.91 and the “Accuracy, −80°C for 30 days” value (Brain, 100 ng/mL) was 105.48 ± 6.92. The “Accuracy, Ambient temperature for 4 h” value (Brain, 2400 ng/mL) was 102.93 ± 5.79, the “Accuracy, Three freeze-thraw cycles” value (Brain, 2400 ng/mL) was 96.57 ± 10.12 and the “Accuracy, −80°C for 30 days” value (Brain, 2400 ng/mL) was 97.98 ± 9.56. The “Accuracy, Ambient temperature for 4 h” value (Heart, 2 ng/mL) was 102.73 ± 12.98, the “Accuracy, Three freeze-thraw cycles” value (Heart, 2 ng/mL) was 91.72 ± 6.33 and the “Accuracy, −80°C for 30 days” value (Heart, 2 ng/mL) was 88.98 ± 5.73. For the same molecule, the “Accuracy, Ambient temperature for 4 h” value (Heart, 4 ng/mL) was 96.88 ± 11.06, the “Accuracy, Three freeze-thraw cycles” value (Heart, 4 ng/mL) was 99.03 ± 10.17 and the “Accuracy, −80°C for 30 days” value (Heart, 4 ng/mL) was 102.27 ± 10.30. For the same molecule, the “Accuracy, Ambient temperature for 4 h” value (Heart, 100 ng/mL) was 112.83 ± 9.11, the “Accuracy, Three freeze-thraw cycles” value (Heart, 100 ng/mL) was 111.00 ± 7.72 and the “Accuracy, −80°C for 30 days” value (Heart, 100 ng/mL) was 112.62 ± 8.15. The “Accuracy, Ambient temperature for 4 h” value (Heart, 2400 ng/mL) was 108.60 ± 8.41, the “Accuracy, Three freeze-thraw cycles” value (Heart, 2400 ng/mL) was 110.55 ± 8.11 and the “Accuracy, −80°C for 30 days” value (Heart, 2400 ng/mL) was 104.85 ± 10.69. The “Accuracy, Ambient temperature for 4 h” value (Kidney, 2 ng/mL) was 110.07 ± 7.34, the “Accuracy, Three freeze-thraw cycles” value (Kidney, 2 ng/mL) was 97.22 ± 7.67 and the “Accuracy, −80°C for 30 days” value (Kidney, 2 ng/mL) was 89.87 ± 9.23. The “Accuracy, Ambient temperature for 4 h” value (Kidney, 4 ng/mL) was 87.63 ± 7.76, the “Accuracy, Three freeze-thraw cycles” value (Kidney, 4 ng/mL) was 87.60 ± 9.26 and the “Accuracy, −80°C for 30 days” value (Kidney, 4 ng/mL) was 89.60 ± 9.05. For the same molecule, the “Accuracy, Ambient temperature for 4 h” value (Kidney, 100 ng/mL) was 112.00 ± 7.01, the “Accuracy, Three freeze-thraw cycles” value (Kidney, 100 ng/mL) was 111.17 ± 7.44 and the “Accuracy, −80°C for 30 days” value (Kidney, 100 ng/mL) was 103.22 ± 11.32. For the same molecule, the “Accuracy, Ambient temperature for 4 h” value (Kidney, 2400 ng/mL) was 100.55 ± 5.11, the “Accuracy, Three freeze-thraw cycles” value (Kidney, 2400 ng/mL) was 100.45 ± 3.96 and the “Accuracy, −80°C for 30 days” value (Kidney, 2400 ng/mL) was 101.23 ± 4.69. The “Accuracy, Ambient temperature for 4 h” value (Liver, 2 ng/mL) was 88.47 ± 6.93, the “Accuracy, Three freeze-thraw cycles” value (Liver, 2 ng/mL) was 88.47 ± 7.22 and the “Accuracy, −80°C for 30 days” value (Liver, 2 ng/mL) was 87.43 ± 7.74. The “Accuracy, Ambient temperature for 4 h” value (Liver, 4 ng/mL) was 86.27 ± 7.32, the “Accuracy, Three freeze-thraw cycles” value (Liver, 4 ng/mL) was 86.00 ± 6.23 and the “Accuracy, −80°C for 30 days” value (Liver, 4 ng/mL) was 87.30 ± 4.35. For the same molecule, the “Accuracy, Ambient temperature for 4 h” value (Liver, 100 ng/mL) was 99.82 ± 2.89, the “Accuracy, Three freeze-thraw cycles” value (Liver, 100 ng/mL) was 102.27 ± 4.97 and the “Accuracy, −80°C for 30 days” value (Liver, 100 ng/mL) was 87.13 ± 5.77. The “Accuracy, Ambient temperature for 4 h” value (Liver, 2400 ng/mL) was 104.17 ± 2.14, the “Accuracy, Three freeze-thraw cycles” value (Liver, 2400 ng/mL) was 99.98 ± 1.86 and the “Accuracy, −80°C for 30 days” value (Liver, 2400 ng/mL) was 87.02 ± 5.24. The “Accuracy, Ambient temperature for 4 h” value (Lung, 2 ng/mL) was 103.27 ± 8.01, the “Accuracy, Three freeze-thraw cycles” value (Lung, 2 ng/mL) was 112.93 ± 9.57 and the “Accuracy, −80°C for 30 days” value (Lung, 2 ng/mL) was 113.77 ± 9.20. For the same molecule, the “Accuracy, Ambient temperature for 4 h” value (Lung, 4 ng/mL) was 101.83 ± 6.41, the “Accuracy, Three freeze-thraw cycles” value (Lung, 4 ng/mL) was 100.07 ± 10.39 and the “Accuracy, −80°C for 30 days” value (Lung, 4 ng/mL) was 98.77 ± 6.15. For the same molecule, the “Accuracy, Ambient temperature for 4 h” value (Lung, 100 ng/mL) was 111.50 ± 5.47, the “Accuracy, Three freeze-thraw cycles” value (Lung, 100 ng/mL) was 110.17 ± 7.14 and the “Accuracy, −80°C for 30 days” value (Lung, 100 ng/mL) was 110.03 ± 9.33. The “Accuracy, Ambient temperature for 4 h” value (Lung, 2400 ng/mL) was 100.67 ± 10.17, the “Accuracy, Three freeze-thraw cycles” value (Lung, 2400 ng/mL) was 104.88 ± 8.23 and the “Accuracy, −80°C for 30 days” value (Lung, 2400 ng/mL) was 110.17 ± 4.54. For the same molecule, the “Accuracy, Ambient temperature for 4 h” value (Plasma, 2 ng/mL) was 101.68 ± 8.39, the “Accuracy, Three freeze-thraw cycles” value (Plasma, 2 ng/mL) was 101.23 ± 12.44 and the “Accuracy, −80°C for 30 days” value (Plasma, 2 ng/mL) was 93.35 ± 10.78. For the same molecule, the “Accuracy, Ambient temperature for 4 h” value (Plasma, 4 ng/mL) was 86.78 ± 6.16, the “Accuracy, Three freeze-thraw cycles” value (Plasma, 4 ng/mL) was 95.02 ± 5.39 and the “Accuracy, −80°C for 30 days” value (Plasma, 4 ng/mL) was 98.92 ± 12.32. The “Accuracy, Ambient temperature for 4 h” value (Plasma, 100 ng/mL) was 112.33 ± 3.72, the “Accuracy, Three freeze-thraw cycles” value (Plasma, 100 ng/mL) was 100.68 ± 6.22 and the “Accuracy, −80°C for 30 days” value (Plasma, 100 ng/mL) was 113.17 ± 4.96. The “Accuracy, Ambient temperature for 4 h” value (Plasma, 2400 ng/mL) was 98.40 ± 5.56, the “Accuracy, Three freeze-thraw cycles” value (Plasma, 2400 ng/mL) was 91.98 ± 4.75 and the “Accuracy, −80°C for 30 days” value (Plasma, 2400 ng/mL) was 112.67 ± 7.58. The “Accuracy, Ambient temperature for 4 h” value (Small intestine, 2 ng/mL) was 105.00 ± 8.20, the “Accuracy, Three freeze-thraw cycles” value (Small intestine, 2 ng/mL) was 103.90 ± 4.49 and the “Accuracy, −80°C for 30 days” value (Small intestine, 2 ng/mL) was 101.42 ± 7.82. For the same molecule, the “Accuracy, Ambient temperature for 4 h” value (Small intestine, 4 ng/mL) was 91.73 ± 4.49, the “Accuracy, Three freeze-thraw cycles” value (Small intestine, 4 ng/mL) was 99.78 ± 7.70 and the “Accuracy, −80°C for 30 days” value (Small intestine, 4 ng/mL) was 106.70 ± 5.43. For the same molecule, the “Accuracy, Ambient temperature for 4 h” value (Small intestine, 100 ng/mL) was 95.90 ± 12.31, the “Accuracy, Three freeze-thraw cycles” value (Small intestine, 100 ng/mL) was 100.93 ± 12.33 and the “Accuracy, −80°C for 30 days” value (Small intestine, 100 ng/mL) was 99.07 ± 12.41. For the same molecule, the “Accuracy, Ambient temperature for 4 h” value (Small intestine, 2400 ng/mL) was 112.00 ± 5.37, the “Accuracy, Three freeze-thraw cycles” value (Small intestine, 2400 ng/mL) was 111.67 ± 6.12 and the “Accuracy, −80°C for 30 days” value (Small intestine, 2400 ng/mL) was 110.83 ± 6.68. The “Accuracy, Ambient temperature for 4 h” value (Spleen, 2 ng/mL) was 97.62 ± 8.11, the “Accuracy, Three freeze-thraw cycles” value (Spleen, 2 ng/mL) was 105.55 ± 7.56 and the “Accuracy, −80°C for 30 days” value (Spleen, 2 ng/mL) was 109.70 ± 13.05. For the same molecule, the “Accuracy, Ambient temperature for 4 h” value (Spleen, 4 ng/mL) was 105.82 ± 9.91, the “Accuracy, Three freeze-thraw cycles” value (Spleen, 4 ng/mL) was 103.68 ± 9.71 and the “Accuracy, −80°C for 30 days” value (Spleen, 4 ng/mL) was 98.88 ± 4.16. For the same molecule, the “Accuracy, Ambient temperature for 4 h” value (Spleen, 100 ng/mL) was 112.00 ± 7.82, the “Accuracy, Three freeze-thraw cycles” value (Spleen, 100 ng/mL) was 106.82 ± 6.88 and the “Accuracy, −80°C for 30 days” value (Spleen, 100 ng/mL) was 111.17 ± 7.17. For the same molecule, the “Accuracy, Ambient temperature for 4 h” value (Spleen, 2400 ng/mL) was 101.52 ± 7.73, the “Accuracy, Three freeze-thraw cycles” value (Spleen, 2400 ng/mL) was 106.67 ± 5.43 and the “Accuracy, −80°C for 30 days” value (Spleen, 2400 ng/mL) was 104.73 ± 7.04. For the same molecule, the “Accuracy, Ambient temperature for 4 h” value (Stomach, 2 ng/mL) was 113.08 ± 11.06, the “Accuracy, Three freeze-thraw cycles” value (Stomach, 2 ng/mL) was 113.58 ± 8.22 and the “Accuracy, −80°C for 30 days” value (Stomach, 2 ng/mL) was 109.08 ± 9.97. For the same molecule, the “Accuracy, Ambient temperature for 4 h” value (Stomach, 4 ng/mL) was 102.70 ± 10.17, the “Accuracy, Three freeze-thraw cycles” value (Stomach, 4 ng/mL) was 98.87 ± 9.82 and the “Accuracy, −80°C for 30 days” value (Stomach, 4 ng/mL) was 89.87 ± 7.04. For the same molecule, the “Accuracy, Ambient temperature for 4 h” value (Stomach, 100 ng/mL) was 93.75 ± 8.65, the “Accuracy, Three freeze-thraw cycles” value (Stomach, 100 ng/mL) was 93.47 ± 6.76 and the “Accuracy, −80°C for 30 days” value (Stomach, 100 ng/mL) was 107.33 ± 5.89. The “Accuracy, Ambient temperature for 4 h” value (Stomach, 2400 ng/mL) was 107.17 ± 8.68, the “Accuracy, Three freeze-thraw cycles” value (Stomach, 2400 ng/mL) was 100.23 ± 4.63 and the “Accuracy, −80°C for 30 days” value (Stomach, 2400 ng/mL) was 99.73 ± 10.09.
